The source of these data is publication PMC5589893, “Identification of Aspergillus fumigatus UDP-Galactopyranose Mutase Inhibitors” (Scientific Reports, 2017).

In series [1] the target is T1, A. fumigatus UGM (Aspergillus fumigatus, UniProt Q4W1X2).
T1 construct: 8x His-tag (TEV-cleavable) (cleaved yes); made in house; host or cells: E. coli BL21 Turbo (DE3)
Description: biochemical. As to conditions: read-out: Normalized anisotropy (%). In kind it is binding. Here is the method: High-throughput screening of the Spectrum Collection library using the FP assay with the ADP-TAMRA[22] probe was performed at the Virginia Tech Center for Drug Discovery Screening Laboratory. 384 well plates (Greiner 784900) were used and the reaction volume was 15 µL using 25 mM HEPES buffer (pH 7.0). For the screening, 30 nM of ADP-TAMRA with 6.7 µM UGM (based on the Bradford assay) and 20 µM of library compound were used, with a final DMSO concentration of 2%. Fluorescence polarization measurements were performed with excitation at 544 nm and emission at 584 nm, using a wavelength cutoff of 570 nm. Anisotropy measurements were performed after 30 and 120 minutes of incubation at 25 °C. Anisotropy values were normalized to the values obtained in the negative control sample: UGM, ADP-TAMRA, and DMSO (high anisotropy values). The positive control consisted of ADP-TAMRA and DMSO (low anisotropy values). The Z prime (Z′) value was determined using equation (1) where, σN,P and μN,P represent the standard deviation and the mean value the of the negative and positive controls respectively.1 Z′=1−3(σN+σP)/|μN−μP|

In series [2] the target is T1, A. fumigatus UGM. Description: biochemical. In kind it is biochemical. As to conditions: for Concentration effect: UPLC; for inhibition at 200 µM: read-out: Inhibition > 50 %; for enzyme activity at which the IC50 curve plateaued: 3 min; for Inhibition of product formation, concentration dependence: UPLC at 20 and 200 µM compound, 2% DMSO. How it is done:
(§1) The reaction was quenched with the addition of 70 µL acetonitrile. […] Samples were run at a flow rate of 0.5 mL/min for 5 min. IC50 was also determined by following NADPH oxidation at 340 nm. […] Data was analyzed using KaleidaGraph software. […] Global fitting was performed with Graphpad Prims 6 software (La Jolla, CA).

Series [3] addresses T1, A. fumigatus UGM. Description: biochemical. In kind it is biochemical. Here is the method: as §1
Series [4] can be described thus: Precipitation / solubility observed in inhibition assays. In kind it is physicochemical.
Series [5] has as its target T2, UGM (Aspergillus fumigatus, UniProt Q4W1X2).
T2 construct: 8x His-tag (TEV-cleavable) (cleaved yes); made in house; host or cells: E. coli BL21 Turbo (DE3)
Description: ThermoFAD melting temperature assay. The note with it: for Effect on Tm of UGM: 20, 100 and 1000 µM compound, 2% DMSO, 1 mg/mL UGM, vs UGM alone. In kind it is binding. Here is the method:
The melting temperature[25] of UGM was determined by measuring the FAD fluorescence as a function of temperature (20–90 °C, 1 °C step) following the reported ThermoFAD procedure. The reaction mix consisted of 20 µL of 1 mg/mL UGM, 2% DMSO in 50 mM potassium phosphate buffer, pH 7.0. As a reference and positive control, the Tm was calculated in the presence DMSO and UDP (10 mM). Different concentrations of inhibitors were added in the range of 0–1 mM at a final DMSO concentration of 2% in the above-mentioned buffer. All experiments were done in triplicate.

The target in series [6] is T1, A. fumigatus UGM. Kind of series: biochemical. In kind it is binding. The note with it: for T•∆S / ∆G / ∆H / Kd: ITC, 25 °C; for Kd: read-out: KD. How it is done:
Binding of inhibitors to UGM was measured with an Auto-ITC 200 ITC instrument. UGM was dialyzed in 50 mM potassium phosphate buffer, pH 7.0, for 2 h at 4 °C. In all cases, ligands were dissolved in dialysis buffer and protein and ligand were filtered with a […] membrane prior to loading. […] Inhibitor concentration in the syringe was 2 mM (2% DMSO), except for chrysin where the concentration was 600 µM (4% DMSO). […] Thermodynamic parameters were determined from ITC results using Microcal Origin version 7.0 (OriginLab) with the “ITC custom” add-on installed.

The target in series [7] is T1, A. fumigatus UGM. Description: ADP-TAMRA fluorescence anisotropy binding and competition assay. The note with it: for Kd: decrease in anisotropy of UGM (6.7 µM) - ADP-TAMRA (30 nM) complex, read-out: KD, competitive binding against ADP-TAMRA. Here is the method:
Our group previously developed a binding assay to identify inhibitors of flavoenzymes that use NADP(H) as substrate. Since UGM also used NADPH for reduction, we determined whether this compound bound to UGM. This was done by taking the ADP-TAMRA[22] chromophore to a final concentration of 30 nM in 25 mM HEPES buffer, pH 7.5, mixed with various concentrations of UGM (0–300 µM, based on Bradford). To determine if the chromophore was binding to the active site of UGM, the competitive binding of UDP (0–1 mM) and NADP^+ (0–10 mM) was calculated by measuring the decrease in anisotropy of the UGM (6.7 µM) - ADP-TAMRA (30 nM) complex. At each concentration of ligand, the solution was incubated for 10 min at room temperature. The sample was excited at 544 nm and the emission recorded at 584 nm using a wavelength cutoff of 570 nm.

[8] abbreviates: inhibition at 200 µM vs 20 µM compound.
The mark [9] stands for this setting: 20 µM compound, 2% DMSO, 30 nM ADP-TAMRA, normalized to negative control.
Where [10] appears, read: product formation by UPLC with 200 µM compound, 20 µM UDP-Galf, 10 mM sodium dithionite.

Read-outs that look alike come from different tables or passages of the source. Some results are limits rather than exact numbers.

T1 sequence (Q4W1X2 whole entry): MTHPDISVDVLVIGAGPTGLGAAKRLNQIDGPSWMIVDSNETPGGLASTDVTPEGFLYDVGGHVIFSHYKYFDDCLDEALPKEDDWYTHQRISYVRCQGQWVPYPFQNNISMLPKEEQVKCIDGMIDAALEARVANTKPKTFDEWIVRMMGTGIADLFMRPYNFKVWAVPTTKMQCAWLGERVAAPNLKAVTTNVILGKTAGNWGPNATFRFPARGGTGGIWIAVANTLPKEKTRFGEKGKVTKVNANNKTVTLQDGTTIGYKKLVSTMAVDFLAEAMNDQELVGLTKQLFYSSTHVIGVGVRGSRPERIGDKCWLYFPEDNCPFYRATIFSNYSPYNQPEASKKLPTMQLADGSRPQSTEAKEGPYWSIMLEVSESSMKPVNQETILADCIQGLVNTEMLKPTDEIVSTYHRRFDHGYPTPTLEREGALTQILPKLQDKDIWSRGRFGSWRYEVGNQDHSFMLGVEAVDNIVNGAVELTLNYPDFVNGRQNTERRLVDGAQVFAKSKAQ
T2 sequence (Q4W1X2 whole entry): as above

Consider `O=C(NCCO[N+](=O)[O-])c1cccnc1` [Nicorandil, reference compound], for which, in series [1], the remaining activity at 20 µM worked out at 27%. Also, in series [2] (setting [8]), the Concentration effect result is “-”. The inhibition at 200 µM in series [2] was under 50%.

Take `Cc1ccc(C(=O)Nc2ccc(S(=O)(=O)O)c3cc(S(=O)(=O)O)cc(S(=O)(=O)O)c23)cc1NC(=O)c1cccc(NC(=O)Nc2cccc(C(=O)Nc3cc(C(=O)Nc4ccc(S(=O)(=O)O)c5cc(S(=O)(=O)O)cc(S(=O)(=O)O)c45)ccc3C)c2)c1` [Suramin hexasodium, reference compound]: in series [1], the remaining activity at 20 µM came to 41%. Moreover, the Concentration effect entry in series [2] (setting [8]) is given as “-”. Further, the inhibition at 200 µM in series [2] is under 50%.

For `O=c1cc(-c2ccccc2)oc2cc(O)cc(O)c12` [Chrysin], in series [1] (setting [9]), the remaining activity at 20 µM turned out to be 48%. This compound also had an IC50 in series [3] of over 1000 µM. Further, the “Inhibition of NADPH oxidation” value in series [3] (absence of UDP-Galf) was “did not inhibit NADPH oxidation”. In series [2], the IC50 is 24 ± 4 µM; the “Inhibition of product formation, concentration dependence” value (“Inhibition of product formation” for short) is reported as “concentration dependent potency”; the inhibition at 200 µM was over 50%. In series [2] (UPLC IC50 curve saturating below full inhibition (chrysin at ~30 µM)), the “enzyme activity at which the IC50 curve plateaued” value is listed as ~ 35%. Further, in series [2] (setting [8]), the Concentration effect result was “+”. Further, in series [4] (with 2% DMSO), the “Concentration above which compound precipitated” value is “above 100 µM”. In series [5], the “Effect on Tm of UGM” value is reported as “no effect on Tm”. Further, in series [6], the “Binding to UGM detected by ITC” value is “nor was binding detected”.

With `O=c1ccn([C@@H]2O[C@H](COP(=O)(O)OP(=O)(O)O)[C@@H](O)[C@H]2O)c(=O)[nH]1` [UDP, reference compound], in series [5] (10 mM UDP), the “Shift of Tm of UGM” value worked out at 3 °C. Further, in series [6], the “T•∆S” value is 10.5 ± 0.3 kcal/mol, the “∆G” value is -7.1 ± 0.1 kcal/mol, the “∆H” value was 3.3 ± 0.1 kcal/mol and the dissociation constant (Kd) was 5.4 ± 0.8 µM. Further, the dissociation constant Kd in series [7] was found to be 10 ± 1 µM.

Regarding `O=C1C[C@H](c2ccc(O)cc2)Oc2cc(O)cc(O)c21` [R enantioniomer of naringenin, (2 R)-naringenin], the “Inhibition of UGM by derivatives” value in series [2] is on record as “no inhibition”.

Turning to `Nc1ncnc2c1ncn2[C@@H]1O[C@H](COP(=O)(O)OP(=O)(O)O)[C@@H](O)[C@H]1O` [ADP], the Kd in series [7] stood at 124 ± 16 µM.

For `NC(=O)c1ccc[n+]([C@@H]2O[C@H](COP(=O)([O-])OP(=O)(O)OC[C@H]3O[C@@H](n4cnc5c(N)ncnc54)[C@H](OP(=O)(O)O)[C@@H]3O)[C@@H](O)[C@H]2O)c1` [NADP^+, reference compound], in series [6], the “T•∆S” value was -8.4 ± 0.7 kcal/mol, the “∆G” value was -4.6 ± 0.3 kcal/mol, the “∆H” value was -13.0 ± 0.3 kcal/mol and the Kd is 413 ± 24 µM. Moreover, the Kd in series [7] turned out to be 92 ± 13 µM.

With `N#CC(c1ccc(Cl)cc1)c1c(Cl)cc(-n2ncc(=O)[nH]c2=O)cc1Cl` (stereo not shown) [Diclazuril, reference compound], the remaining activity at 20 µM in series [1] (setting [9]) came to 37%. In addition, the “Inhibition of product formation” value in series [2] is reported as “concentration dependent potency”. For the same compound, the Concentration effect result in series [2] (setting [8]) is “+”. In series [2] (setting [10]), the inhibition at 200 µM was over 50%. The “Effect on Tm of UGM” value in series [5] is given as “reduced the Tm”.

Take `COc1cc(C)c(C(=O)Oc2cc(C)c(C(=O)O)c(O)c2C)c(OC)c1C` [Diffractaic acid]: the remaining activity at 20 µM in series [1] (setting [9]) was 37%. Moreover, the Concentration effect entry in series [2] (setting [8]) was “-”. Besides, the inhibition at 200 µM in series [2] (setting [10]) was under 50%.

As for `CS(=O)(=O)Nc1ccc([N+](=O)[O-])cc1Oc1ccccc1` [Nimesulide, reference compound], the remaining activity at 20 µM in series [1] came to 28%. Besides, in series [2] (setting [8]), the Concentration effect entry is “-”. Besides, the inhibition at 200 µM in series [2] was under 50%.

Consider `O=C(O)C1=CC(=C(c2ccc(O)c(C(=O)O)c2)c2ccc(O)c(C(=O)O)c2)C=CC1=O` [Aurin tricarboxylic acid], for which the remaining activity at 20 µM in series [1] (setting [9]) turned out to be 14%. The Concentration effect result in series [2] (setting [8]) is “-”. In series [2] (setting [10]), the inhibition at 200 µM is under 50%.

For the compound `O=C1C[C@@H](c2ccc(O)cc2)Oc2cc(O)ccc21` [liquiritigenin], the “Inhibition of UGM by derivatives” value in series [2] was “no inhibitory effect”.

Consider `O=C(O)c1cc(/N=N/c2ccc(O)c(C(=O)O)c2)ccc1O` [Olsalazine sodium, reference compound], for which, in series [1], the remaining activity at 20 µM turned out to be 48%. Besides, the Concentration effect result in series [2] (setting [8]) is reported as “-”. Moreover, the inhibition at 200 µM in series [2] is under 50%.

Regarding `O=c1c(O)c(-c2ccc(O)cc2)oc2cc(O)cc(O)c12` [Kaempferol], in series [1] (setting [9]), the remaining activity at 20 µM amounted to 38%. In series [2], the “enzyme activity at which the IC50 curve plateaued” value is “around 70%”. In addition, in series [2] (setting [8]), the Concentration effect entry was “+”. Moreover, in series [2] (setting [10]), the inhibition at 200 µM is over 50%. The “anisotropy at which the KD curve plateaued” value in series [7] (30 nM ADP-TAMRA) is on record as “around 50%”.

Take `Cc1nc(-c2ccc(OCC(C)C)c(C#N)c2)sc1C(=O)O` [Febuxostat, reference compound]: the remaining activity at 20 µM in series [1] (setting [9]) turned out to be 39%. Moreover, in series [2], the “Inhibition of product formation” value is reported as “concentration dependent potency” and the inhibition at 200 µM is over 50%. For the same compound, the Concentration effect result in series [2] (setting [8]) was “+”. Besides, the “Effect on Tm of UGM” value in series [5] is recorded as “reduced the Tm”.

In the case of `O=c1oc2c(O)c(O)cc3c(=O)oc4c(O)c(O)cc1c4c23` [Ellagic acid], in series [1] (setting [9]), the remaining activity at 20 µM turned out to be 50%. Moreover, in series [2] (ellagic acid assayed at 6 and 12 µM with 2% DMSO due to low solubility), the Concentration effect result is “-”. Moreover, in series [4], the “Solubility” value is reported as “low solubility”.

A word on the inhibition: it is the change of the read-out against control, counted positive when it falls. The IC50 is the point on the concentration scale where inhibition reaches its midpoint. A higher IC50 goes with weaker potency in that assay. The term Kd denotes a measure of binding affinity in units of concentration.
